In ChEMBL document CHEMBL3091374, “New synthetic enediynes and their conjugates may provide effective treatment for cancer” (ACS Med Chem Lett, 2013):

Experiments:
[1] = test system: NCI-H226; assay: Antiproliferative activity against human NCI-H226 cells assessed as ATP level after 72 hrs by CellTiter-Glo assay; type: functional, cell-based; settings: NCI-H226, 72 h
[2] = Antiproliferative activity against human 786-O cells assessed as ATP level after 72 hrs by CellTiter-Glo assay; type: functional, cell-based; settings: 786-0, 72 h

SMILES | EC50 [1] [pM] | EC50 [2] [pM]
C[C@@H](O)[C@@]12O[C@]13c1cc(O)c4c(c1N[C@H]2C#C/C=C\C#C[C@H]3O)C(=O)c1ccc(NCCN)cc1C4=O | 986 | 1280
C[C@@H](O)[C@@]12O[C@]13c1cc(O)c4c(c1N[C@H]2C#C/C=C\C#C[C@H]3O)C(=O)c1ccc(NC(=O)c2ccc(N)cc2)cc1C4=O | 873 | 58
